Measured values published in patent publication US20230355513A1, “PARTICLES INCLUDING CHITOSAN-BILIRUBIN CONJUGATE, AND ORAL PHARMACEUTICAL COMPOSITION INCLUDING SAME” (KOREA ADVANCED INSTITUTE OF SCIENCE AND TECHNOLOGY, priority 2021, published 2023).

System: mouse inflammatory bowel disease model (DSS)
Test: Efficacy in mouse inflammatory bowel disease model with 5-ASA control (Example 7)
Type: in vivo
Conditions: 50 mg/kg, compared with the other groups
Description: As the symptoms of inflammatory bowel disease were aggravated, systemic inflammations may be caused through the release of inflammatory cytokines in the blood, and therefore, an effective anti-inflammatory medicine was thought to inhibit the release of inflammatory substances in the spleen, liver, kidney, or the like to prevent the inflammations, and thus this was investigated.

For Nc1ccc(O)c(C(=O)O)c1 [5-ASA, 5-aminosalicylic acid], the spleen weight was “spleen weight was high”.
